For the test, the target named is MCH receptor (Homo sapiens, UniProt Q99705). As to the kind of experiment: High throughput functional screening FLIPR/FDSS6000 (intracellular Ca2+ evoked by MCH). Format: cell-based. The following applies: FLIPR/FDSS, antagonist activity vs 50 nM MCH, class by percent of control at 10^−7 M or IC50, read-out: class. The source says:
High Throughput Functional Screening: FLIPR™
This assay utilized a non-endogenous, constitutively active version of the MCH receptor.
The concentration of free Ca^2+ in the cytosol of any cell is extremely low, whereas its concentration in the extracellular fluid and endoplasmic reticulum (ER) is very high. Thus, there is a large gradient tending to drive Ca^2+ into the cytosol across both the plasma membrane and ER. The FLIPR™ and FDSS6000™ systems (Molecular Devices Corporation, […] Photonics K.K.) are designed to perform functional cell-based assays, such as the measurement of intracellular calcium for high-throughput screening. The measurement of fluorescent is associated with calcium release upon activation of the Gq-coupled receptors.
Fluorometric Imaging Plate Reader system was used to allow for rapid, kinetic measurements of intracellular fluorescence in 96 well microplates (or 384 well microplates). Simultaneous measurements of fluorescence in all wells can be made by FLIPR or FDSS6000™ every second with high sensitivity and precision. These systems are ideal for measuring cell-based functional assays such as monitoring the intracellular calcium fluxes that occur within seconds after activation of the Gq coupled receptor.
Briefly, the cells are seeded into 96 well at 5.5×10^4 cells/well with complete culture media (Dulbecco's Modified Eagle Medium with 10% fetal bovine serum, 2 mM L-glutamine, 1 mM sodium pyruvate and 0.5 mg/ml G418, pH 7.4) for the assay next day. On the day of assay, the media is removed and the cells are incubated with 100 μl of loading buffer (4 μM Fluo4-AM in complete culture media containing 2.5 mM Probenicid, 0.5 mg/ml and 0.2% bovine serum albumin) in 5% CO2 incubator at 37° C. for 1 hr. The loading buffer is removed, and the cells are washed with wash buffer (Hank's Balanced Salt Solution containing 2.5 mM Probenicid, 20 mM HEPES, 0.5 mg/ml and 0.2% bovine serum albumin, pH 7.4)). One hundred fifty μl of wash buffer containing various concentrations of test compound is added to the cells, and the cells are incubated in 5% CO2 incubator at 37° C. for 30 min. […] 530 nm for 290 second. When antagonist activity of compound is tested, 50 nM of MCH is used.
Use of FLIPR™ and FDSS6000™ can be accomplished by following manufacturer's instruction (Molecular Device Corporation and […] Photonics K.K.).

Structures are written as SMILES. Counter-ions that a name gives are not always drawn. Like-named read-outs stand apart in the source and are kept apart here.

Turning to `Cc1cnc(N[C@H]2CC[C@@H](NC(=O)Nc3ccc(F)c(Cl)c3)CC2)nc1N(C)C` [Example 3331, N-(3-chloro-4-fluorophenyl)-N′-(cis-4-{[4-(dimethylamino)-5-methylpyrimidin-2-yl]amino}cyclohexyl)urea], the IC50 was in the range of 0.05 to 0.2 µM.

Take `CNc1nc(N[C@H]2CC[C@@H](NC(=O)COc3cc(C(F)(F)F)nn3C)CC2)ncc1C` [Example 3362, N-(cis-4-{[5-methyl-4-(methylamino)pyrimidin-2-yl]amino}-cyclohexyl)-2-{[1-methyl-3-(trifluoromethyl)-1H-pyrazol-5-yl]oxy}acetamide]: the IC50 is greater than 0.2 µM.

With `Cc1cnc(N[C@H]2CC[C@@H](NC(=O)c3cccnc3S(=O)(=O)c3ccc(C(F)(F)F)cc3)CC2)nc1N(C)C` [Example 3291, N-(cis-4-{[4-(dimethylamino)-5-methylpyrimidin-2-yl]amino}cyclohexyl)-2-{[4-(trifluoromethyl)phenyl]sulfonyl}-nicotinamide], the IC50 lay in the range of 0.05 to 0.2 µM.

For the compound `CN(C)c1ccnc(N[C@H]2CC[C@@H](CNC(=O)Nc3cccc(Cl)c3Cl)CC2)n1` [Example 3222, 1-(2,3-Dichloro-phenyl)-3-[cis-4-(4-dimethylamino-pyrimidin-2-ylamino)-cyclohexylmethyl]-urea hydrochloride], where the note is “table after the classification”, the IC50 was less than 0.05 µM.

As for `Cc1cnc(N[C@H]2CC[C@@H](NC(=O)COc3cc(C(F)(F)F)ncn3)CC2)nc1N(C)C` [Example 3357, N-(cis-4-{[4-(dimethylamino)-5-methylpyrimidin-2-yl]amino}cyclohexyl)-2-{[6-(trifluoromethyl)pyrimidin-4-yl]oxy}acetamide], the IC50 is greater than 0.2 µM.

Regarding `O=C(N[C@H]1CC[C@@H](Nc2ccc3ccccc3n2)CC1)c1cccc(C(F)(F)F)c1` [Example 3050, N-[cis-4-(Quinolin-2-ylamino)-cyclohexyl]-3-trifluoromethyl-benzamide hydrochloride], the IC50 (table after the classification) was less than 0.05 µM.

In the case of `COc1nc(N[C@H]2CC[C@@H](NC(=O)c3cc(Cl)cc(Cl)c3)CC2)ncc1C` [Example 3279, 3,5-dichloro-N-{cis-4-[(4-methoxy-5-methylpyrimidin-2-yl)amino]cyclohexyl}benzamide], the IC50 is greater than 0.2 µM.

On to `Cc1cccc(C(=O)N[C@H]2CC[C@@H](Nc3ccc4ccccc4n3)CC2)c1` [Example 3033, 3-Methyl-N-[cis-4-(quinolin-2-ylamino)-cyclohexyl]-benzamide hydrochloride], for which, where the note is “table after the classification”, the IC50 is less than 0.05 µM.

With `Cc1cnc(N[C@H]2CC[C@@H](NC(=O)N(C)c3ccccc3Cl)CC2)nc1N(C)C` [Example 3347, N-(2-chlorophenyl)-N′-(cis-4-{[4-(dimethylamino)-5-methylpyrimidin-2-yl]amino}cyclohexyl)-N-methylurea], the IC50 is 0.05 to 0.2 µM.

In the case of `Cc1cc(N(C)C)nc(N[C@H]2CC[C@@H](NC(=O)c3cc(F)cc(Cl)c3)CC2)n1` [Example 3384, 3-Chloro-N-[cis-4-(4-dimethylamino6-methyl-pyrimidin-2-ylamino)-cyclohexyl]5-fluoro-benzamide hydrochloride], the IC50 (table after the classification) was less than 0.05 µM.

Take `O=C(N[C@H]1CC[C@@H](Nc2cc(Cl)c3ccccc3n2)CC1)c1ccc(F)c(F)c1` [Example 3117, N-[cis-4-(4-Chloro-quinolin-2-ylamino)-cyclohexyl]-3,4-difluoro-benzamide hydrochloride]: the IC50 (table after the classification) is less than 0.05 µM.

In the case of `Cc1cnc(N[C@H]2CC[C@@H](NC(=O)Nc3cc(Cl)ccc3Cl)CC2)nc1N(C)C` [Example 3342, N-(2,5-dichlorophenyl)-N′-(cis-4-{[4-(dimethylamino)-5-methylpyrimidin-2-yl]amino}cyclohexyl)urea], the IC50 lay within 0.05 to 0.2 µM.

Turning to `COc1cccc(OCC(=O)N[C@H]2CC[C@@H](Nc3ccc4ccccc4n3)CC2)c1` [Example 3062, 2-(3-Methoxy-phenoxy)-N-[cis-4-(quinolin-2-ylamino)-cyclohexyl]-acetamide hydrochloride], the IC50 (table after the classification) is less than 0.05 µM.

In the case of `COc1cc(OC)nc(N[C@H]2CC[C@@H](NC(=O)c3ccc(F)c(F)c3)CC2)n1` [Example 3132, N-[cis-4-(4,6-Dimethoxy-pyrimidin-2-ylamino)-cyclohexyl]-3,4-difluoro-benzamide hydrochloride], under “table after the classification”, the IC50 is greater than 0.2 µM.

Take `Cc1cc(N[C@H]2CC[C@@H](NC(=O)c3ccc(N(C)C)nc3)CC2)nc2ccccc12` [Example 3176, 6-Dimethylamino-N-[cis-4-(4-methyl-quinolin-2-ylamino)-cyclohexyl]-nicotinamide dihydrochloride]: the IC50 (table after the classification) was in the range of 0.05 to 0.2 µM.

`CN(C)c1nc(N[C@H]2CC[C@@H](NCCc3ccc(Br)cc3OC(F)(F)F)CC2)nc2c1CCCC2` [Example 14, N^2-{cis-4-[2-(4-Bromo-2-trifluoromethoxy-phenyl)-ethylamino]-cyclohexyl}-N^4,N^4-dimethyl-5,6,7,8-tetrahydro-quinazoline-2,4-diamine dihydrochloride]: the IC50 (table after the classification) is less than 0.05 µM.

As to `COc1nc(N[C@H]2CC[C@@H](NC(=O)c3cc(C(F)(F)F)cc(C(F)(F)F)c3)CC2)ncc1C` [Example 3280, N-{cis-4-[(4-methoxy-5-methylpyrimidin-2yl)amino]cyclohexyl}-3,5-bis(trifluoromethyl)benzamide], the IC50 was greater than 0.2 µM.

For `O=C(N[C@H]1CC[C@@H](Nc2ccc3ccccc3n2)CC1)c1cccnc1Oc1ccccc1` [Example 3032, 2-Phenoxy-N-[cis-4-(quinolin-2-ylamino)-cyclohexyl]-nicotinamide hydrochloride], the IC50 (table after the classification) was less than 0.05 µM.

Take `NC(=O)c1cc(N[C@H]2CC[C@@H](NC(=O)c3ccc(F)c(F)c3)CC2)nc2ccccc12` [Example 3236, 2-(cis-4-{[1-(3,4-Difluoro-phenyl)-methanoyl]-amino}-cyclohexylamino)-quinoline-4-carboxylic acid amide]: the IC50 (table after the classification) was greater than 0.2 µM.

Consider `Cc1cc(N(C)C)nc(N[C@H]2CC[C@@H](NC(=O)c3cccnc3S(=O)(=O)c3cccc(Cl)c3)CC2)n1` [Example 3370, 2-[(3-chlorophenyl)sulfonyl]-N-(cis-4-{[4-(dimethylamino)-6-methylpyrimidin-2-yl]amino}cyclohexyl)nicotinamide], for which the IC50 was 0.05 to 0.2 µM.

Consider `Cc1cc(N(C)C)nc(N[C@H]2CC[C@@H](C(=O)NC(C)(C)c3cc(C(F)(F)F)cc(C(F)(F)F)c3)CC2)n1` [Example 3275, cis-N-{1-[3,5-bis(trifluoromethyl)phenyl]-1-methylethyl}-4-{[4-(dimethylamino)-6-methylpyrimidin-2-yl]amino}cyclohexanecarboxamide], for which the IC50 is greater than 0.2 µM.

With `Cc1cnc(N[C@H]2CC[C@@H](NC(=O)c3ccc(F)c(Cl)c3)CC2)nc1N` [Example 3392, N-[cis-4-(4-Amino-5-methyl-pyrimidin-2-ylamino)-cyclohexyl]-3-chloro-4-fluoro-benzamide hydrochloride], the IC50 (table after the classification) is greater than 0.2 µM.

Take `CN(C)c1ccnc(N[C@H]2CC[C@@H](NC(=O)Cc3ccc(F)c(F)c3)CC2)n1` [Example 3204, 2-(3,4-Difluoro-phenyl)-N-[cis-4-(4-dimethylamino-pyrimidin-2-ylamino)-cyclohexyl]-acetamide hydrochloride]: where the note is “table after the classification”, the IC50 fell in the range of 0.05 to 0.2 µM.

Consider `Cc1cc(N[C@H]2CC[C@@H](CNC(=O)c3ccc(F)c(F)c3)CC2)nc2ccccc12` [Example 3104, 3,4-Difluoro-N-[cis-4-(4-methyl-quinolin-2-ylamino)-cyclohexylmethyl]-benzamide hydrochloride], for which the IC50 (table after the classification) is 0.05 to 0.2 µM.

The record behind these values is patent publication US20050197350A1, “Novel quinoline, tetrahydroquinazoline, and pyrimidine derivatives and methods of treatment related to the use thereof” (TAISHO PHARMACEUTICAL CO., LTD., priority 2003, published 2005).
